Measured values reported in ChEMBL document CHEMBL1201862, “PubChem BioAssay data set” (2004).
Activity calls are given as the source filed them.

Key:
[1] = target: Mitogen-activated protein kinase kinase kinase kinase 5 (Homo sapiens, UniProt Q9Y4K4); type: functional;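 further: measured as one member of a kinome-spanning kinase panel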
[2] = target: Maternal embryonic leucine zipper kinase (Homo sapiens, UniProt Q14680); type: functional
[3] = target: Cyclin-dependent kinase 2 (Homo sapiens, UniProt P24941); type: functional;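 further: CDK2 measured as one member of a broad kinome profiling panel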
[4] = target: ATP-dependent molecular chaperone HSP82 (Candida albicans (strain WO-1) (Yeast), UniProt C4YTQ8); assay: loss of DOC-induced GRE-beta-galactosidase reporter signal, dose response, Hsp90 inhibitor project, S. cerevisiae, luminescence (AID 2400); type: functional, cell-based;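 further: beta-galactosidase luminescence from glucocorticoid response element reporter as proxy for Hsp90 function; inhibitor potency where signal loss means Hsp90 inhibition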
Sequence of ATP-dependent molecular chaperone HSP82 (C4YTQ8 whole entry): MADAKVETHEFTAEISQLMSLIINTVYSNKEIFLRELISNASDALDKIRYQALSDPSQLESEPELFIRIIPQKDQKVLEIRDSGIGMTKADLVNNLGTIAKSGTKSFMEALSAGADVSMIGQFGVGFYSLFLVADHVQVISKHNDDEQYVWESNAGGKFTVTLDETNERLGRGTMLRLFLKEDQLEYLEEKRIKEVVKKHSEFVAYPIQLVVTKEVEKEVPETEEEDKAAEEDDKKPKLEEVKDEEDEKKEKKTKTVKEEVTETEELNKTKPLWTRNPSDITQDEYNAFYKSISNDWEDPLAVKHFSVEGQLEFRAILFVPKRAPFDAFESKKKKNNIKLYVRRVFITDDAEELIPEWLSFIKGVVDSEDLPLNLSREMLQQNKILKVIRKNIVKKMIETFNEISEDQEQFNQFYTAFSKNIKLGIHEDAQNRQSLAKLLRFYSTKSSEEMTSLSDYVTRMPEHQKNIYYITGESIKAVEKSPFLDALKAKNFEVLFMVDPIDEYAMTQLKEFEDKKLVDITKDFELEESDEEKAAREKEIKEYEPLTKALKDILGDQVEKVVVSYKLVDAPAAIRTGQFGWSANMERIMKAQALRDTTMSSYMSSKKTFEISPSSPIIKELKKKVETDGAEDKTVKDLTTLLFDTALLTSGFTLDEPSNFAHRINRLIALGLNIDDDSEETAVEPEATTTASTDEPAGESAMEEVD

[5] = Counterscreen for AddAB inhibitors: absorbance-based bacterial cell-based high throughput dose response assay for inhibitors of bacterial viability. [Related pubchem assays (depositor defined):AID435030, AID449728, AID449731, AID488942, AID488955, AID488956]; type: functional
[6] = target: T1, Mannose-6-phosphate isomerase (Homo sapiens, UniProt P34949); assay: human PMI inhibitors, high substrate, primary screen, biochemical, fluorescence intensity, high mannose 6-phosphate (AID 1220)
T1 sequence (P34949 whole entry): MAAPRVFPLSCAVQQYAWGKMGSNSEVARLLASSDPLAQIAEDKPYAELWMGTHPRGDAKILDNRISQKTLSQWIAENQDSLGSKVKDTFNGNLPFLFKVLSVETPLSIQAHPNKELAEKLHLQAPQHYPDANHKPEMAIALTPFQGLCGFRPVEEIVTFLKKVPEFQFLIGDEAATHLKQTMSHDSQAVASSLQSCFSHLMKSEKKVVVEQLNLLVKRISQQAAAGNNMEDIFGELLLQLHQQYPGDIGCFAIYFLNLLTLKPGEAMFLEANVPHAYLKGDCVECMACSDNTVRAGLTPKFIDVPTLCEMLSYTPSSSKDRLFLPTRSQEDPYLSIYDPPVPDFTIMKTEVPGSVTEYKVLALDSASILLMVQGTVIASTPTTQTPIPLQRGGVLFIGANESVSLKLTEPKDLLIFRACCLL

[7] = target: Protein-tyrosine kinase 2-beta (Homo sapiens, UniProt Q14289);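 further: potency of inhibitors of PYK2 kinase phosphorylation of poly-GT substrate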
Sequence of Protein-tyrosine kinase 2-beta (Q14289 whole entry): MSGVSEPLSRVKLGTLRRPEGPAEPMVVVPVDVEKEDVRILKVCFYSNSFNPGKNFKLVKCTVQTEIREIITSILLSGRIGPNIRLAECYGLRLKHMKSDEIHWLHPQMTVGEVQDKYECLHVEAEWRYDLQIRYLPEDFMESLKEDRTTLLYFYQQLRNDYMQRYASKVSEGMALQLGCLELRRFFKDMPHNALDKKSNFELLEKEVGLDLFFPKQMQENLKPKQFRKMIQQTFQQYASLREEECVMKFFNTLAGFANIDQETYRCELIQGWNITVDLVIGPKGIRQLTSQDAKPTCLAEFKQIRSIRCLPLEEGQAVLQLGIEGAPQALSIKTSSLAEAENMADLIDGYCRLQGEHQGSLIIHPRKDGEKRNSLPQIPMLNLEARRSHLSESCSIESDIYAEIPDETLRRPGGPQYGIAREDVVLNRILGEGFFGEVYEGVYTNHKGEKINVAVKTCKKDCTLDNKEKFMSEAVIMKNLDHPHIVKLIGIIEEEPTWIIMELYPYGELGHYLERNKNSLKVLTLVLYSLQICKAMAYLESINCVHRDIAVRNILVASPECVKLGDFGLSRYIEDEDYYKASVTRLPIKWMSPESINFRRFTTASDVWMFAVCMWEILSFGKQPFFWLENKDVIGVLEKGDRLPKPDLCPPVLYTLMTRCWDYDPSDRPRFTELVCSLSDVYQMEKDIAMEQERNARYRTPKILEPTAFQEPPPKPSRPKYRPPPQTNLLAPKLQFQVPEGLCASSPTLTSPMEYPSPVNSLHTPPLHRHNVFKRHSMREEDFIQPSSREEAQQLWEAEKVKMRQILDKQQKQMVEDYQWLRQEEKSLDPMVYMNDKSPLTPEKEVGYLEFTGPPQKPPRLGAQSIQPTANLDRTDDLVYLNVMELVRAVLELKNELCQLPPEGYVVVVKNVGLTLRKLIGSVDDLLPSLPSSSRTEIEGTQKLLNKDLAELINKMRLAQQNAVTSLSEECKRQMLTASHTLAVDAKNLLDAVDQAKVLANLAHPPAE

[8] = target: Mothers against decapentaplegic homolog 3 (Homo sapiens, UniProt P84022); assay: SMAD3 transcription factor inhibitors, dose response (AID 715); type: functional
Sequence of Mothers against decapentaplegic homolog 3 (P84022 whole entry): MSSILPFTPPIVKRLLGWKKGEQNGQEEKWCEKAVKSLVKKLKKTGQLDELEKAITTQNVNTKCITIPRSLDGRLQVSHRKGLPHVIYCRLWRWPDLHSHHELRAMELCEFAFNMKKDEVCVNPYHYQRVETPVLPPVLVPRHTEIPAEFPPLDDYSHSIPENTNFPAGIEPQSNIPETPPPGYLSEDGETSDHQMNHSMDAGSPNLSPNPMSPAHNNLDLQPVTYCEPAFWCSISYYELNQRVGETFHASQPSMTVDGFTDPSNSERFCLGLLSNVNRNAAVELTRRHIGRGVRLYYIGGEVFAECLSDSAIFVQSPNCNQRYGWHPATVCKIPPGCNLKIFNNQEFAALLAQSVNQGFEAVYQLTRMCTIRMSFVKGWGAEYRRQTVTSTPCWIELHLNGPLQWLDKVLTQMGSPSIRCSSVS

[9] = microbe, parasite or virus in culture; type: functional; details: Mycobacterium tuberculosis
Insulin-degrading enzyme = target: T2, Insulin-degrading enzyme (Homo sapiens, UniProt P14735); assay: activators of recombinant IDE enzyme, dose response, counter-screen for IDE activator project, biochemical, fluorescence polarization (AID 588681)
T2 sequence (P14735 whole entry): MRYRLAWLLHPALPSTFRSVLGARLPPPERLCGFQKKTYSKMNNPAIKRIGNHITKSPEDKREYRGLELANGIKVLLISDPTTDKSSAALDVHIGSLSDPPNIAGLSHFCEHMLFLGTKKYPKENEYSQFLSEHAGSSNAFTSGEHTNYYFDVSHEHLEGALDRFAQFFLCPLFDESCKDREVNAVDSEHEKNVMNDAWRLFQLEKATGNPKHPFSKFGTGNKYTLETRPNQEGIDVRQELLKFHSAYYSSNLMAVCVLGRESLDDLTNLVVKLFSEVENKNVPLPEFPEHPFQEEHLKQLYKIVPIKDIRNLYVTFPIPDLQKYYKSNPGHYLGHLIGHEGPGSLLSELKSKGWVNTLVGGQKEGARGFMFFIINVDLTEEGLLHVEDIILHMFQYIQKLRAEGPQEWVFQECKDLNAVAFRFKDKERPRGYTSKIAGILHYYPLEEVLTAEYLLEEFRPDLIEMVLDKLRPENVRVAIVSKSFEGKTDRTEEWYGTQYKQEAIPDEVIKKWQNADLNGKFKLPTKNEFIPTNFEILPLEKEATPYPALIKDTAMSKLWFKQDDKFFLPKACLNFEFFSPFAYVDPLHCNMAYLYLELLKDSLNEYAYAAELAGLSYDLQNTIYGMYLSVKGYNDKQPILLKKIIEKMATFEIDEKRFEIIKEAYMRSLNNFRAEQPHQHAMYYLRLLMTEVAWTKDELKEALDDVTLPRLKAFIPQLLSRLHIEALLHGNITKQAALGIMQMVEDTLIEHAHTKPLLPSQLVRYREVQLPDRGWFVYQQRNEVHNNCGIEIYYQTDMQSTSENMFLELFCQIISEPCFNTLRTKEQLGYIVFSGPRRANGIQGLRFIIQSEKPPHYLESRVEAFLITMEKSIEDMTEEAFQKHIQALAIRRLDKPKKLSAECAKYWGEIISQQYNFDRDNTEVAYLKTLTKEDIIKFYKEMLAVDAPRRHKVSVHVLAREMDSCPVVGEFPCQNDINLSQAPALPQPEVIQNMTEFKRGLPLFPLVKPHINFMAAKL

[10] = Shn3 3'UTR reporter inhibitors, dose response, cell-based, Clone20 osteoblasts, firefly luciferase, cherry-picked (AID 624132); type: functional;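 further: firefly luciferase luminescence from reporter carrying the Shn3 3'UTR in osteoblasts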
CAAX prenyl protease 2 = target: T3, CAAX prenyl protease 2 (Homo sapiens, UniProt Q9Y256); assay: human Rce1 protease inhibitors, dose response, biochemical, yeast membranes, quenched-peptide fluorescence, cherry-pick (AID 588849)
T3 sequence (Q9Y256 whole entry): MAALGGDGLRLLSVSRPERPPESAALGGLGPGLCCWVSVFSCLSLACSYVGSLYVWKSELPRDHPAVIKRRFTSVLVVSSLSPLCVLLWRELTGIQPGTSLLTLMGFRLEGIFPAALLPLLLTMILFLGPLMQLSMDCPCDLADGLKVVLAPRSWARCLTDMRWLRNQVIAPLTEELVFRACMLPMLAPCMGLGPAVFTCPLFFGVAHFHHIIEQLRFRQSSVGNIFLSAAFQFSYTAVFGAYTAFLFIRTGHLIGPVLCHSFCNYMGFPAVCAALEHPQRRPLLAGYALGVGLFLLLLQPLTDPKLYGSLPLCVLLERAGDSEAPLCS

HEK293 = assay: optical interference in Abeta FP readout, dose response, artefact control for IDE activator project, biochemical, fluorescence polarization (AID 588442); type: functional, cell-based; details: Homo sapiens
[11] = target: G protein-coupled receptor kinase 5 (Homo sapiens, UniProt P34947); assay: Navigating the Kinome. Panel member name: GPRK5; type: functional
Sequence of G protein-coupled receptor kinase 5 (P34947 whole entry): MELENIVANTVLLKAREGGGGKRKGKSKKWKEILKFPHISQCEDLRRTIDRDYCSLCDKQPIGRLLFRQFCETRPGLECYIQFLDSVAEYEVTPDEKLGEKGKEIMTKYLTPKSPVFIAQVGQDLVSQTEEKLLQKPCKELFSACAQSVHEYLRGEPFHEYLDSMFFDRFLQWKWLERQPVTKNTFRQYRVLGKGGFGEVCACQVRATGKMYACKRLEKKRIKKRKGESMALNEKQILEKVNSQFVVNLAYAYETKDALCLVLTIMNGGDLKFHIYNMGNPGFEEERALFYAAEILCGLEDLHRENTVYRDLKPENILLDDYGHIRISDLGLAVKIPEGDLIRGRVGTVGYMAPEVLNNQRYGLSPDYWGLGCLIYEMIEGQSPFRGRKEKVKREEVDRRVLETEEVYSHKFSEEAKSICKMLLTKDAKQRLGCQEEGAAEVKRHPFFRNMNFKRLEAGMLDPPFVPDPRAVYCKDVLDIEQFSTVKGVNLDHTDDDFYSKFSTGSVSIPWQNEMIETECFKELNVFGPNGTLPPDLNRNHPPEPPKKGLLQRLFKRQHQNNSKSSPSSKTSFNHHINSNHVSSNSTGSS

Sequence of Mitogen-activated protein kinase kinase kinase kinase 5 (Q9Y4K4 whole entry): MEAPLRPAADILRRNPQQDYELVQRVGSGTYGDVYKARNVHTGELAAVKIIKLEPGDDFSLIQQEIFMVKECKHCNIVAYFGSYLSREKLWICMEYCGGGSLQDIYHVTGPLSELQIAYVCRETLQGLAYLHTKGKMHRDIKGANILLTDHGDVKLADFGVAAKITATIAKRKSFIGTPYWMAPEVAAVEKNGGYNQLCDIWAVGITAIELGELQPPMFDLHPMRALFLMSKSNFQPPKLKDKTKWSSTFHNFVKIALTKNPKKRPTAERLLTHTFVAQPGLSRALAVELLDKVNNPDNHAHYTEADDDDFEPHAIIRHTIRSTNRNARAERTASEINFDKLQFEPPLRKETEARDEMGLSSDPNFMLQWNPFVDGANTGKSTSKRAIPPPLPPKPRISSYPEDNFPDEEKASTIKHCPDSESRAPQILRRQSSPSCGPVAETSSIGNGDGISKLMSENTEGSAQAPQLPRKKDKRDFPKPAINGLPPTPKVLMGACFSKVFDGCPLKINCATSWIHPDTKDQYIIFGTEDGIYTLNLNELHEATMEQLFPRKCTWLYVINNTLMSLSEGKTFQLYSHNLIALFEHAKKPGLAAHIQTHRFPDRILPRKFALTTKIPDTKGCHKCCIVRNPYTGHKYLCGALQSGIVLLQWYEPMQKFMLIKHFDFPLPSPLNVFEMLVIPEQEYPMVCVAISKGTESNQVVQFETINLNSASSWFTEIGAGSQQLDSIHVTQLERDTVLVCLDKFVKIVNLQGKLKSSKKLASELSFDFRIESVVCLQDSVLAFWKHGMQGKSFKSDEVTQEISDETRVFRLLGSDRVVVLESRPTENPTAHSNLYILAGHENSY
Sequence of Maternal embryonic leucine zipper kinase (Q14680 whole entry): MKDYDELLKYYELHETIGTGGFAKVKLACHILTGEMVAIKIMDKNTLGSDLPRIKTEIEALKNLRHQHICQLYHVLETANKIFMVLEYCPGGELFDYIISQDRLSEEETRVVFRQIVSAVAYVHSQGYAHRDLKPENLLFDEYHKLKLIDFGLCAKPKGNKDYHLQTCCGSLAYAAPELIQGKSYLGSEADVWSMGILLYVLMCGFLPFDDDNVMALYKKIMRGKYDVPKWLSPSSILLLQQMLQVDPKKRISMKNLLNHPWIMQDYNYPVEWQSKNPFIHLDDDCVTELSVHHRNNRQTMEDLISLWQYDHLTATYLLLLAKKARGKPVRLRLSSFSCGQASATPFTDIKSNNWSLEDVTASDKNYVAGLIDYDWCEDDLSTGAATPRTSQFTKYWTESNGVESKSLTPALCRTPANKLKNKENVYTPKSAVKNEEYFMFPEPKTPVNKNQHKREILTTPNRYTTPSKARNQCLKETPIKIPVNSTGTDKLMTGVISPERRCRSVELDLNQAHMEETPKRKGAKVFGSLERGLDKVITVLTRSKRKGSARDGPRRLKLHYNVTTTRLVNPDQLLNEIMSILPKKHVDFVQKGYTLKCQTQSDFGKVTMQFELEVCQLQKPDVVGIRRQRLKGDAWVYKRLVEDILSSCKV

NC1CCC(Nc2nc(Cl)cc(-c3c[nH]c4ncccc34)n2)CC1 (configuration not stated)
Ki [1]: 0.0501 µM (active) | pKi [1]: 7.3 | Ki [2]: 0.00316 µM (active) | pKi [2]: 8.5 | Ki [3]: 0.0316 µM (active) | pKi [3]: 7.5

CC(C)CC(=O)NC(c1cccs1)c1ccc2cccnc2c1O (configuration not stated)
EC50 [4]: > 150 µM (inactive) | IC50 [5]: > 119 µM (inactive)

Cc1ccccc1-c1cc2c(nn1)-c1ccccc1C2=O
IC50 [6]: > 50 µM (not active)

CCOC(=O)c1ccc(NC2=CC(=O)C(=O)c3ccccc32)cc1
IC50 [7]: > 69.5 µM (not active) | IC50 [8]: 2.81 µM (active) | CC50 [9]: 21.1 µM (active)

OC(CNCCC1C=Nc2ccccc21)Cn1c2ccc(Cl)cc2c2cc(Cl)ccc21 (configuration not stated)
EC50 (Insulin-degrading enzyme): > 54.7 µM (inactive) | AC50 [10]: 5.11 µM (active) | AC50 (CAAX prenyl protease 2): 79.3 µM (active) | EC50 (HEK293): > 56 µM (inactive)

O=C(O)C1CN(Cc2ccc(OCc3ccccc3)cc2Cl)C1
Ki [11]: > 3.98 µM (inactive)
